In patent publication US8704037B2, “Targeted cell death” (priority 2007, dated 2014):

What was measured:
[1] = tested on: primary oligodendrocyte cultures; experiment: CID-induced cell death in primary oligodendrocyte cultures transduced with iCP9 virus; assay type: cell-based, rat; conditions: CID 10 nM; iCP9-expressing primary oligodendrocyte cultures; fluorescent microscope and Methylene Blue viability staining
Description: To induce timely cell death. Collected virus was used to transduce primary oligodendrocyte cultures that have been established. Cells were cultured and evaluated using fluorescent microscopy for the expression of GFP. The extent of GFP positive cells correlated with the viral infection efficacy. Cell protein isolation was conducted and protein isolates were subjected to Western blot transfer to detect stable expression of the iCP9 protein. The resultant membrane was probed with anti-caspase 9 antibody (R&D Systems Inc. #AF8301). Once the stable expression of iCP9 was confirmed at the protein level with Western blot techniques, the CID was applied to these cells in culture at a 10 nM concentration. […] Cell death was detected by viewing cultures under the fluorescent microscope and by using Methylene Blue (Sigma) viability staining of cells in culture after exposure to the CID. All experiments were run in parallel using the astrocyte-derived U87 cell line as a negative control.
Establish primary oligodendrocyte cultures. […] The status of cellular differentiation was monitored by noting the change in cellular morphology in culture. […]
Once this system and differentiation pattern was confirmed, A2B5^+ primary cell cultures were cultured in pΔmbpICP9/mEGFP viral supernatant for 8 hours. […] Infected cells expressed EGFP and were readily identified using the proper fluorescent filter system. […]

293T cells = experiment: CID-induced apoptosis in 293T cells transfected with iCP9 lentivirus or control virus; assay type: cell-based
Description: (§1) EGFP is also produced from the same viral plasmid and promoter. […] However, cells not transfected with virus (EGFP negative) persisted in culture. […] A Cell Death Detection ELISA Plus (Roche Inc) was also performed to determine the level of apoptosis in culture after cells infected with various dilutions of virus were exposed to CID.

[2] = tested on: cells infected with virus encoding iCP9; experiment: Cell Death Detection ELISA Plus after virus dilutions and CID; assay type: cell-based; conditions: various dilutions of iCP9 virus, 4 hours after CID
Description: FIG. 6 is a graph showing cells exposed to various dilutions of virus encoding the iCP9 gene and then CID was added to the culture media. 4 hours later, Apoptosis ELISA was performed. […] Thus apoptosis correlated with iCP9 gene expression. X-axis is virus dilution. Y-axis is ELISA absorption at 405 nm.
as §1

[3] = tested on: MBP+ cells (oligodendrocytes); experiment: Mixed cortical cultures infected with pLpMBP(iCP9)MG and exposed to CID; assay type: cell-based, rat
Description: High density mixed cortical cultures were established after isolation of cerebral cortices from 3 Fischer rats as previously described. Cerebral cortices were removed and place in ice-cold Hanks' balanced salt solution, centrifuged and digested with trypsin at 37° for 10 minutes. Tissue was centrifuged and resuspended in minimal essential medium with Earle's salt (Invitrogen) containing heat-inactivated fetal bovine serum and horse serum. Cell suspension was passed through cell strainers and plated. After three hours the medium is changed to Neurobasal medium supplemented with B27 MinusAO (Invitrogen). Cultures were maintained for seven days and then immunohistochemical staining was performed to verify the composition of the cultures.
The mixed primary cortical cultures (consisting of all CNS cell types) were infected with pLpMBP(iCP9)MG and exposed to CID and then analyzed for cell death of oligodendrocytes (MBP+ cells). The MBP promoter was designed to induce cell death only in MBP+ cells, the majority of which are mature oligodendrocytes.

GFAP+ cells (astrocytes) [4] = experiment: Pan purified GFAP+ cultures infected with pLpGFAP(iCP9)MG and exposed to CID; assay type: cell-based; conditions: 4 hours after CID
Text: To test the specificity of the GFAP promoter system, GFAP+ pan purified cultures (cultures of purified astrocytes) were transfected with pLpGFAP(iCP9)MG and exposed to CID.

A2B5+ cells = experiment: Mixed cortical cultures infected with pLpPDGFR(iCP9)MG and exposed to CID; assay type: cell-based, rat; conditions: four hours after CID, loss of viable cell morphology
Text: To confirm the cell specificity of the PDGFR-α promoter system, rat-derived primary cortical cultures were infected with pLpPDGFR(iCP9)MG virus. […] This provides data supporting the oligoprecursor-specificity of the PDGFR-α promoter system.

GFAP+ cells (astrocytes) [5] = experiment: pLpGFAP(iCP9)MG injected into corpus callosum, then CID into ipsilateral ventricle; assay type: in vivo, rat; conditions: 24 hours after CID
Description: The system was tested in vivo to ensure that cell specific apoptosis could be induced and the timing of cell ablation controlled as it was in vitro. To this end, virus was injected into the corpus callosum of adult Fischer rats and then three weeks later CID was administered into the ipsilateral ventricle. Rats were sacrificed 24-hours thereafter, brains removed in whole, fixed and cyrosectioned for analysis. […] The TUNEL (TdT-mediated dUTP-X nick end-labeling) system adds a tag on to DNA that has been fragmented during the apoptosis cascade allowing for labeling using standard immunohistochemistry. Thin sections derived from control rats receiving glycerol rather than CID were TUNEL negative. Consecutive thin sections were then stained with anti-GFAP antibody to identify astrocytes. […] This confirmed that in vivo the iCP9 system induces apoptosis only after CID administration and effectively ablates GFAP+ astrocytes.

[6] = tested on: oligodendrocytes (MBP staining cells); experiment: pLpMBP(iCP9)MG injected into corpus callosum, then CID; assay type: in vivo, rat; conditions: after CID
[7] = tested on: infected region of the CNS; experiment: pΔmbpICP9/mEGFP virus applied to the CNS, then intraperitoneal CID; assay type: in vivo, rat; conditions: CID via intraperitoneal injection after virus injection
Description: The virus described above, pΔmbpICP9/mEGFP, which contains the inducible caspase 9 sequence was applied to the CNS of adult rats to create an in vivo model of CNS demyelination. Administration of the viral vector allowed effective transfer of genetic information in a variable area of parenchyma based on the rate of administration (convective distribution) and viral titer. […] First, adult Fischer rats were anaesthetized by intraperitoneal injection of ketamine hydrochloride (80 mg/kg) and xylazine ([…]) and placed in a stereotactic frame. A midline scalp incision is made. Access to brain parenchyma was accomplished by placement of a right-sided burr hole through the skull, at various predetermined coordinates depending on the desired location of the lesion. […] The volume of viral vector (e.g., lentivirus) delivered depends upon the infection efficacy as determined herein and the target area size. After injection, the needle is left in place for five minutes and then slowly withdrawn over the next four minutes. The skin was closed with sutures.
For virus administration to the spinal cord an incision was made in the thoracic spine followed by a lamenectomy to expose the spinal cord. A No. 32S-gauge needle was passed into the posterior column at predetermined coordinates.

[8] = tested on: primary oligodendrocyte cultures; conditions: pΔmbpICP9/mEGFP virus; based on published data in other cell types (Straathof et al., 2005); cited from earlier work

CC[C@H](C(=O)N1CCCC[C@H]1C(=O)O[C@H](CCc1ccc(OC)c(OC)c1)c1cccc(OCC(=O)NCC(CNC(=O)COc2cccc([C@@H](CCc3ccc(OC)c(OC)c3)OC(=O)[C@@H]3CCCCN3C(=O)[C@@H](CC)c3cc(OC)c(OC)c(OC)c3)c2)CN(C)C)c1)c1cc(OC)c(OC)c(OC)c1 [CID]
cell death of infected cells [1]: induced the cellular death of infected cells | apoptosis of EGFP-positive cells after CID (293T cells; 293T cells, pLpCMV(iCP9)MG virus): rapidly underwent apoptosis | EGFP-positive cells after CID, control virus (293T cells; cultures transfected with control virus pLpCMVXMG): EGFP-positive cells persisted | apoptosis level (ELISA absorption at 405 nm) [2]: Apoptosis levels decreased with dilution of virus | morphology of A2B5/EGFP, GFAP/EGFP and O4/EGFP positive cells ([3]; non-target cell types): appeared morphologically normal before and after CID exposure | morphology of MBP-positive, EGFP-positive cells after CID ([3]; relative to cells not exposed to CID): appeared disrupted | EGFP positive cells after CID (GFAP+ cells (astrocytes) [4]): a decrease in EGFP positive cells | apoptosis of A2B5+ cells (A2B5+ cells): identified undergoing apoptosis | anti-GFAP staining at area of viral infection (GFAP+ cells (astrocytes) [5]): GFAP+ cells were not detected at the area of viral infection | TUNEL staining (GFAP+ cells (astrocytes) [5]; glycerol controls TUNEL negative): TUNEL positive staining at the site of virus infection | anti-MBP staining at site of infection ([6]; glycerol controls normal): failed to stain with anti-MBP antibody at the site of infection | TUNEL positive cells ([6]; not in glycerol controls): TUNEL positive cells were identified at the site of infection | apoptosis of infected CNS region [7]: resulting in apoptosis of the infected region of the CNS | time to cell death of oligodendrocytes after CID [8]: 4 to 6 h
